Assay results as given in PMC12655637, “Design, Synthesis, and Mechanistic Study of Novel Ciprofloxacin/Thiazole Chalcone Hybrids as Potential Anticancer Agents” (Pharmaceuticals, 2025).
Read-outs that look alike come from different tables or passages of the source.

Columns and labels:
Experiment in all cases: NCI-60 screening, one-dose (10 µM) and five-dose, SRB
[1] = tested on: CCRF-CEM; type: cell-based, human; details: Homo sapiens, 10 μM, Leukemia, read-out: Growth percentage
[2] = tested on: K-562; type: cell-based, human; details: Homo sapiens, K562, 10 μM; K-562, Leukemia; read-out: Growth percentage
[3] = tested on: MOLT-4; type: cell-based, human; details: Homo sapiens; 10 μM; MOLT-4, Leukemia; read-out: Growth percentage
[4] = tested on: SR; type: cell-based, human; details: 10 μM, Leukemia
[5] = tested on: A549/ATCC; type: cell-based, human; details: Homo sapiens, 10 μM, Non-Small-Cell Lung Cancer, read-out: Growth percentage
[6] = tested on: EKVX; type: cell-based, human; details: Homo sapiens, 10 μM, Non-Small-Cell Lung Cancer, read-out: Growth percentage
[7] = tested on: HOP-92; type: cell-based, human; details: Homo sapiens; 10 μM; HOP-92, Non-Small-Cell Lung Cancer; read-out: Growth percentage
[8] = tested on: NCI-H23; type: cell-based, human; details: Homo sapiens; 10 μM; NCI-H23, Non-Small-Cell Lung Cancer; read-out: Growth percentage
[9] = tested on: HCC-2998; type: cell-based, human; details: Homo sapiens; 10 μM; HCC-2998, Colon Cancer; read-out: Growth percentage
[10] = tested on: HCT-116; type: cell-based, human; details: Homo sapiens, HCT-116, 10 μM; HCT-116, Colon Cancer; read-out: Growth percentage
[11] = tested on: HCT-15; type: cell-based, human; details: Homo sapiens; 10 μM; HCT-15, Colon Cancer; read-out: Growth percentage
[12] = tested on: HT29; type: cell-based, human; details: Homo sapiens, HT-29; 10 μM; HT29, Colon Cancer; read-out: Growth percentage
[13] = tested on: KM12; type: cell-based, human; details: Homo sapiens, KM12, 10 μM; KM12, Colon Cancer; read-out: Growth percentage
[14] = tested on: SF-295; type: cell-based, human; details: Homo sapiens; 10 μM; SF-295, CNS Cancer; read-out: Growth percentage
[15] = tested on: SF-539; type: cell-based, human; details: Homo sapiens, SF-539, 10 μM; SF-539, CNS Cancer; read-out: Growth percentage
[16] = tested on: SNB-75; type: cell-based, human; details: Homo sapiens; 10 μM; SNB-75, CNS Cancer; read-out: Growth percentage
[17] = tested on: U251; type: cell-based, human; details: Homo sapiens, U-251; 10 μM; U251, CNS Cancer; read-out: Growth percentage
[18] = tested on: MDA-MB-435; type: cell-based; details: Homo sapiens, MDA-MB-435, read-out: Growth percentage, 10 μM; MDA-MB-435, Melanoma
[19] = tested on: OVCAR-5; type: cell-based, human; details: 10 μM; OVCAR-5, Ovarian Cancer
[20] = tested on: NCI/ADR-RES; type: cell-based, human; details: Homo sapiens, 10 μM, Ovarian Cancer, read-out: Growth percentage
[21] = tested on: SK-OV-3; type: cell-based, human; details: Homo sapiens; 10 μM; SK-OV-3, Ovarian Cancer; read-out: Growth percentage
[22] = tested on: A498; type: cell-based; details: Homo sapiens
[23] = tested on: ACHN; type: cell-based, human; details: Homo sapiens, 10 μM, Renal Cancer, read-out: Growth percentage
[24] = tested on: RXF 393; type: cell-based; details: Homo sapiens
[25] = tested on: TK-10; type: cell-based, human; details: Homo sapiens; 10 μM; TK-10, Renal Cancer; read-out: Growth percentage
[26] = tested on: PC-3; type: cell-based, human; details: Homo sapiens; 10 μM; PC-3, Prostate Cancer; read-out: Growth percentage
[27] = tested on: MDA-MB231/ATCC; type: cell-based; details: 10 μM; MDA-MB231/ATCC, Breast Cancer
[28] = tested on: HS 578T; type: cell-based, human; details: Homo sapiens, 10 μM, Breast Cancer, read-out: Growth percentage
[29] = tested on: BT-549; type: cell-based; details: Homo sapiens
[30] = tested on: T-47D; type: cell-based, human; details: 10 μM, Breast Cancer
[31] = tested on: MDA-MB-468; type: cell-based, human; details: Homo sapiens, MDA-MB-468, 10 μM; MDA-MB-468, Breast Cancer; read-out: Growth percentage
Excerpt: Control cells Test cells FLD
available usually at NCI library.
An aliquot of frozen drug concentrate is […]

[32] = 10 μM, RXF 393, Renal Cancer, read-out: Growth percentage
[33] = 10 μM, BT-549, Breast Cancer, read-out: Growth percentage
[34] = A498, 10 μM, A498, Renal Cancer, read-out: Growth percentage

| Structure (SMILES) | activity at 10 µM [1] | activity at 10 µM [2] | activity at 10 µM [3] | Growth percentage [4] | activity at 10 µM [5] | activity at 10 µM [6] | activity at 10 µM [7] | activity at 10 µM [8] | activity at 10 µM [9] | activity at 10 µM [10] | activity at 10 µM [11] | activity at 10 µM [12] | activity at 10 µM [13] | activity at 10 µM [14] | activity at 10 µM [15] | activity at 10 µM [16] | activity at 10 µM [17] | activity at 10 µM [18] | Growth percentage [19] | activity at 10 µM [20] | also measured |
| --- | --- | --- | --- | --- | --- | --- | --- | --- | --- | --- | --- | --- | --- | --- | --- | --- | --- | --- | --- | --- | --- |
| Cc1nc(SCC(=O)N2CCN(c3cc4c(cc3F)c(=O)c(C(=O)O)cn4C3CC3)CC2)sc1C(=O)/C=C/c1ccc(F)cc1 [Compound 4e, (E)-1-Cyclopropyl-6-fluoro-7-(4-(2-((5-(3-(4-fluorophenyl)acryloyl)-4-methylthiazol-2-yl)thio)acetyl)piperazin-1-yl)-4-oxo-1,4-dihydroquinoline-3-carboxylic Acid] | 104% | 98.2% | 105% | 55.6% | 104% | 108% | 98% | 101% | 107% | 51.2% | 96.8% | 115% | 97.3% | 98.8% | 99% | 103% | 114% | 104% | 119.2% | 104% | activity at 10 µM [21]: 114%; activity at 10 µM ([22]; A498, read-out: Growth percentage): 106%; activity at 10 µM [23]: 98.9%; activity at 10 µM [24, 32]: 95.9%; activity at 10 µM [25]: 103%; activity at 10 µM [26]: 96.6%; Growth percentage [27]: 101.1%; activity at 10 µM [28]: 105%; activity at 10 µM [29, 33]: 102%; Growth percentage [30]: 95.6%; activity at 10 µM [31]: 106% |
| Cc1nc(SCC(=O)N2CCN(c3cc4c(cc3F)c(=O)c(C(=O)O)cn4C3CC3)CC2)sc1C(=O)/C=C/c1ccc(Br)cc1 [Compound 4f, (E)-7-(4-(2-((5-(3-(4-Bromophenyl)acryloyl)-4-methylthiazol-2-yl)thio)acetyl)piperazin-1-yl)-1-cyclopropyl-6-fluoro-4-oxo-1,4-dihydroquinoline-3-carboxylic Acid] | 106% | 96.2% | 96.2% | 56.5% | 107% | 107% | 115% | 102% | 115% | 94.3% | 106% | 117% | 108% | 108% | 89.9% | 65.7% | 98.4% | 107% | 110.6% | 107% | activity at 10 µM [21]: 110%; activity at 10 µM [22, 34]: 114%; activity at 10 µM [23]: 107%; activity at 10 µM ([24]; RXF 393, read-out: Growth percentage): 107%; activity at 10 µM [25]: 108%; activity at 10 µM [26]: 102%; Growth percentage [27]: 98.6%; activity at 10 µM [28]: 99.6%; activity at 10 µM ([29]; BT-549, read-out: Growth percentage): 107%; Growth percentage [30]: 89.3%; activity at 10 µM [31]: 109% |
| Cc1nc(SCC(=O)N2CCN(c3cc4c(cc3F)c(=O)c(C(=O)O)cn4C3CC3)CC2)sc1C(=O)/C=C/c1cccc([N+](=O)[O-])c1 [Compound 4g, (E)-1-Cyclopropyl-6-fluoro-7-(4-(2-((4-methyl-5-(3-(3-nitrophenyl)acryloyl)thiazol-2-yl)thio)acetyl)piperazin-1-yl)-4-oxo-1,4-dihydroquinoline-3-carboxylic Acid] | 74.5% | 29.3% | 86.4% | 11.6% | 90.3% | 111% | 68.4% | 87.8% | 50.3% | -73.5% | 71.7% | 37.2% | 21.7% | 110% | 64.5% | 95.7% | 50.7% | 71.9% | 119.9% | 102% | activity at 10 µM [21]: 121%; activity at 10 µM [22, 34]: 129%; activity at 10 µM [23]: 110%; activity at 10 µM [24, 32]: 92.9%; activity at 10 µM [25]: 109%; activity at 10 µM [26]: 112%; Growth percentage [27]: 92.4%; activity at 10 µM [28]: 99.1%; activity at 10 µM [29, 33]: 66.9%; Growth percentage [30]: 84.1%; activity at 10 µM [31]: 92.8% |
| Cc1nc(SCC(=O)N2CCN(c3cc4c(cc3F)c(=O)c(C(=O)O)cn4C3CC3)CC2)sc1C(=O)/C=C/c1ccc([N+](=O)[O-])cc1 [Compound 4h, (E)-1-Cyclopropyl-6-fluoro-7-(4-(2-((4-methyl-5-(3-(4-nitrophenyl)acryloyl)thiazol-2-yl)thio)acetyl)piperazin-1-yl)-4-oxo-1,4-dihydroquinoline-3-carboxylic Acid] | 45.7% | 28.9% | 62.7% | 23.8% | 99.7% | 113% | 126% | 73.2% | 71.9% | 33.8% | 62.3% | 76.1% | 54.4% | 116% | 67.9% | 91.2% | 59.9% | 88.4% | 121.1% | 88.8% | activity at 10 µM [21]: 119%; activity at 10 µM [22, 34]: 125%; activity at 10 µM [23]: 96.7%; activity at 10 µM [24, 32]: 89.5%; activity at 10 µM [25]: 116%; activity at 10 µM [26]: 85.9%; Growth percentage [27]: 94.5%; activity at 10 µM [28]: 99.6%; activity at 10 µM [29, 33]: 83.9%; Growth percentage [30]: 64.1%; activity at 10 µM [31]: 85.2% |
